Laboratory results from PMC3813752 (PLoS ONE, 2013).
Where “and” joins values, the source holds several entries; their conditions need not be identical. Identical values can stand only once. Entries after “also recorded” stand apart in the source; their conditions may differ. Like-named read-outs stand apart in the source and are kept apart here. Marks after values point to notes of the source that are not given here.

Columns and labels:
human CB1 receptor [1] = target: T1, human CB1 receptor (Homo sapiens, UniProt P21554); assay: cAMP accumulation assay, CHO cells expressing CB1; type: cell-based
T1 sequence (P21554 whole entry): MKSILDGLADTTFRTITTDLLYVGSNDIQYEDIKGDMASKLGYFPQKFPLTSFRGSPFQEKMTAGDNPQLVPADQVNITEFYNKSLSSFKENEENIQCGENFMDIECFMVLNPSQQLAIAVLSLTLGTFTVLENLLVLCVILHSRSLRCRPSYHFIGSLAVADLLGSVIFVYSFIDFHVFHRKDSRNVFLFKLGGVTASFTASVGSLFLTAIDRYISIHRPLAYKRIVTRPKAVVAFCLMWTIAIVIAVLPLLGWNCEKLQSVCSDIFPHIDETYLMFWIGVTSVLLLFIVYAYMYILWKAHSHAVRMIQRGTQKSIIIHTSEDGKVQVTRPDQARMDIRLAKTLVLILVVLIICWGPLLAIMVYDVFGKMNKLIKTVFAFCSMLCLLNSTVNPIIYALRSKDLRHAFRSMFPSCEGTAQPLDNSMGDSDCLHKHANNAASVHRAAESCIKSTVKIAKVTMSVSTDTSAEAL

human GPR55 = human GPR55 (Homo sapiens, UniProt Q9Y2T6); assay: β-arrestin recruitment assay (PathHunter), CHO cells expressing GPR55; settings: for inhibition at 10 µM: CHO; for IC50: GPR55 IC50, β-arrestin recruitment, antagonist mode vs. LPI (1 µM); for functional property at GPR55 (agonist/antagonist): in words; for agonist effect on β-arrestin recruitment at GPR55: test compound 10 µM, related to effect of LPI 1 µM = 100%
human GPR55, sequence (Q9Y2T6 whole entry): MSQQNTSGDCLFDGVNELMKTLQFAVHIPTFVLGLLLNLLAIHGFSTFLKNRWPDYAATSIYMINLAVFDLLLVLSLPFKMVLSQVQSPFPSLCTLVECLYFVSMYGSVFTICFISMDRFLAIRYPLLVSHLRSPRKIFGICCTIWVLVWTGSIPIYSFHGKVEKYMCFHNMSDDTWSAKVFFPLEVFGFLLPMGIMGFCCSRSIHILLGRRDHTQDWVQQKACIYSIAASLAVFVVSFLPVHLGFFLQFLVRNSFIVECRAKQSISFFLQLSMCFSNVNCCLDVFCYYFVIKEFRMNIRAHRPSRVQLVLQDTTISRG

human GPR18 [2] = target: T2, human GPR18 (Homo sapiens, UniProt Q14330); settings: for functional property at GPR18 (agonist/antagonist): in words; for agonist effect on β-arrestin recruitment at GPR18: test compound 10 µM, related to effect of Δ9-THC 10 µM = 100%
T2 sequence (Q14330 1-331): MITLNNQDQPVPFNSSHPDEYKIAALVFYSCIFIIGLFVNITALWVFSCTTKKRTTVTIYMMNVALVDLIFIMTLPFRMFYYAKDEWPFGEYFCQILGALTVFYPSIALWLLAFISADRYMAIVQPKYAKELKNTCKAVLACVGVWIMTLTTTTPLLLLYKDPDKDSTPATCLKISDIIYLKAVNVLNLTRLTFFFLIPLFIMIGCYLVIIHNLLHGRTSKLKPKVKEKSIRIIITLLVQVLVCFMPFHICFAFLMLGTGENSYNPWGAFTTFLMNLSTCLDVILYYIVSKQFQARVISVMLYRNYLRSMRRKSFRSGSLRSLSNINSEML

human CB2 receptor [3] = target: T3, human CB2 receptor (Homo sapiens, UniProt P34972); assay: cAMP accumulation assay, CHO cells expressing CB2; type: cell-based; settings: for functional property at CB2 (agonist/antagonist): in words, standard ligands partly from the literature
T3 sequence (P34972 whole entry): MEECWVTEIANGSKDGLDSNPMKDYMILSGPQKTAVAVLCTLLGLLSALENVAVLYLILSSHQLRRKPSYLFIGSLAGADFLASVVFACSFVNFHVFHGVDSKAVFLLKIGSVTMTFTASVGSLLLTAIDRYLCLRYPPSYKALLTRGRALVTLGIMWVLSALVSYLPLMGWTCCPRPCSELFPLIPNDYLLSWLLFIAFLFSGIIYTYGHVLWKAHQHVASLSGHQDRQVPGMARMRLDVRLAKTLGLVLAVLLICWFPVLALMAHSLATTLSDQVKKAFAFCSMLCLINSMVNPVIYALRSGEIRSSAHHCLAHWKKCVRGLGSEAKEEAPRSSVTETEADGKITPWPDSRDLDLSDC

human GPR18 [4] = target: T2, human GPR18; assay: cell-based; settings: for inhibition at 10 µM: CHO, read-out: % inhibition of Δ9-THC (10 µM)-induced β-arrestin recruitment at GPR18, test compound at 10 µM; for IC50: GPR18 IC50, β-arrestin recruitment, antagonist mode vs. Δ9-THC (10 µM)
human CB2 receptor [5] = target: T3, human CB2 receptor; assay: Radioligand binding (heterologous competition) vs. [3H]CP55,940 at CB2; settings: three independent experiments in duplicates
human CB1 receptor [6] = target: T1, human CB1 receptor; assay: biochemical; type: binding; settings: for Ki: membranes of CHO cells expressing human CB1, three independent experiments in duplicates, read-out: Ki CB1, heterologous competition vs. [3H]CP55,940
[7] = read-out: % inhibition of LPI (1 µM)-induced β-arrestin recruitment at GPR55
[8] = in words, standard ligands partly from the literature
[9] = read-out: % inhibition of LPI (1 µM)-induced β-arrestin recruitment at GPR55, test compound at 10 µM
[10] = inhibition of forskolin-stimulated cAMP, CHO-hCB1, read-out: EC50 CB1, cAMP accumulation assay
[11] = Ki CB2, heterologous competition vs. [3H]CP55,940, membranes of CHO cells expressing human CB2
[12] = membranes of CHO cells expressing human CB2, read-out: Ki CB2, heterologous competition vs. [3H]CP55,940
[13] = at 10 µM, compared to max. effect of full agonist CP55,940 (1 µM) = 100%

| SMILES | EC50 (human GPR55) | inhibition at 10 µM (human GPR55; [7]) | IC50 (human GPR55) | functional property at GPR55 (agonist/antagonist) (human GPR55) | agonist effect on β-arrestin recruitment at GPR55 (human GPR55) | functional property at GPR18 (agonist/antagonist) (human GPR18 [2]) | agonist effect on β-arrestin recruitment at GPR18 (human GPR18 [2]) | functional property at CB2 (agonist/antagonist) (human CB2 receptor [3]) | EC50 (human GPR18 [4]) | inhibition at 10 µM (human GPR18 [4]) | IC50 (human GPR18 [4]) | functional property at CB1 (agonist/antagonist) (human CB1 receptor [1]; [8]) | inhibition at 10 µM (human GPR55; [9]) | Ki (human CB2 receptor [5]; [11]) | Ki (human CB1 receptor [6]) | EC50 (human CB2 receptor [3]) | EC50 (human CB1 receptor [1]) | other results |
| --- | --- | --- | --- | --- | --- | --- | --- | --- | --- | --- | --- | --- | --- | --- | --- | --- | --- | --- |
| CCCCCCC(C)(C)c1ccc(C2CC(O)CCC2CCCO)c(O)c1 (single isomer, unassigned; (-)) [Compound 4, (-)-cis-3-[2-hydroxy-4-(1,1-dimethylheptyl)phenyl]-trans-4-(3-hydroxypropyl)cyclohexanol, reference compound] | > 10 µM | 93% | 1.61 ± 0.47 µM | antagonistic activity; also recorded: antagonist | 4% | inverse agonistic activity; also recorded: antagonist | 0% | agonist | > 10 µM | 188% | 5.99 ± 1.88 µM | – | – | – | – | – | – | functional property at CB1 (agonist/antagonist) (human CB1 receptor [1]): agonist |
| COc1ccc(-c2oc3cc(OC)ccc3c2C(=O)c2ccc(C#N)cc2)cc1 [Compound 6, reference compound] | > 10 µM | – | 4.14 ± 1.05 µM | antagonist | 0% | antagonist | 0% | antagonist | > 10 µM | 81% | 4.97 ± 1.51 µM | antagonist | 81% | – | – | – | – | – |
| COc1ccc(C(=O)c2c(C)n(CCN3CCOCC3)c3cc(I)ccc23)cc1 [Compound 7, reference compound] | > 10 µM | 48% | ≥ 10 µM | antagonist | 22% | antagonist | 0% | antagonist | > 10 µM | 52% | ~10 µM | agonist | – | – | – | – | – | – |
| CCCc1ccc(O)c(-c2cc(CCC)ccc2O)c1 [Compound 12, tetrahydromagnolol] | > 10 µM | 96% | 13.2 ± 4 µM | antagonist | 24% | antagonist | 0% | agonist | > 10 µM | 64% | 30.9 ± 15.8 µM | agonist | – | – | – | – | – | – |
| CCCc1ccc(O)c(-c2cc(CCC)ccc2OC)c1 [Compound 12a, methoxytetrahydromagnolol] | > 10 µM | 82% | 4.55 ± 1.08 µM | antagonist | 0% | antagonist | 26% | Full agonists; also recorded: agonist | > 10 µM | 41% | ~10 µM | Full agonists; also recorded: agonist | – | 0.221 ± 0.057 µM | 0.267 ± 0.058 µM | 0.0778 ± 0.0205 µM | – | EC50 (human CB1 receptor [1]; [10]): 0.622 ± 0.284 µM |
| CCCCc1ccc(O)c(-c2cc(CCCC)ccc2O)c1 [Compound 43] | > 10 µM | – | > 10 µM | – | 29% | – | 0% | – | > 10 µM | 74% | 12 ± 1.4 µM | – | 0% | – | 2.7 ± 1.2 µM | 0.378 ± 0.148 µM | 7.11 ± 1.43 µM | Ki (human CB2 receptor [5]; [12]): 1.59 ± 0.04 µM |
| CCCCCc1ccc(O)c(-c2cc(CCCCC)ccc2O)c1 [Compound 44] | > 10 µM | – | > 10 µM | – | 26% | – | 0% | – | > 10 µM | 128% | 12 ± 2.7 µM | – | 2% | – | 3.13 ± 1.13 µM | 2.3 ± 0.71 µM | 4.54 ± 0.83 µM | Ki (human CB2 receptor [5]; [12]): 0.833 ± 0.123 µM |
| CCCCCc1ccc(O)c(-c2cc(CCC)ccc2O)c1 [Compound 60, 5-Pentyl-5′-propylbiphenyl-2,2′-diol] | > 10 µM | – | > 10 µM and ~10 µM | antagonist | 28% | antagonist | 0% | partial agonists; also recorded: almost full efficacy; also recorded: agonist | > 10 µM | 118% | 14.5 ± 2.8 µM | full agonistic effects; also recorded: full agonists; also recorded: agonist | 45% | 0.0371 ± 0.0078 µM | 0.362 ± 0.113 µM | 0.258 ± 0.013 µM | 0.971 ± 0.089 µM | – |
| CCCCCc1ccc(O)c(-c2cc(CCC)ccc2OC)c1 [Compound 60a, 2-(2-methoxy-5-propyl-phenyl)-4-pentylphenol] | > 10 µM | 66% | 6.93 ± 1.06 µM | antagonist | 0% | antagonist | 22% | Full agonists; also recorded: agonist | > 10 µM | 47% | > 10 µM and ~10 µM | Full agonists; also recorded: agonist | – | 0.031 ± 0.0099 µM | 0.0173 ± 0.0014 µM | 0.0399 ± 0.01 µM | – | EC50 (human CB1 receptor [1]; [10]): 0.0375 ± 0.0056 µM; increase in CB1 receptor affinity compared to the unmethylated parent biphenyl (human CB1 receptor [6]; 60a vs 60, 61a vs 61): 21 fold |
| CCCCCCc1ccc(O)c(-c2cc(CCC)ccc2O)c1 [Compound 61, 5-Hexyl-5′-propylbiphenyl-2,2′-diol] | > 10 µM | – | > 10 µM and ~10 µM | antagonist | 32% | antagonist | 0% | almost full efficacy; also recorded: partial agonists; also recorded: agonist | > 10 µM | 139% | ~10.4 µM and 10.4 µM | full agonistic effects; also recorded: full agonists; also recorded: agonist | 45% | 0.0294 ± 0.009 µM | 0.145 ± 0.048 µM | 0.159 ± 0.018 µM | 0.829 ± 0.278 µM | selectivity for CB1 versus GPR18 (human GPR18 [2]; Ki CB1 vs estimated GPR18 IC50): approximately 70 fold; selectivity for CB2 versus GPR18 (human GPR18 [2]; Ki CB2 vs estimated GPR18 IC50): ~350 fold |
| CCCCCCCc1ccc(O)c(-c2cc(CCC)ccc2O)c1 [Compound 62] | > 10 µM | – | > 10 µM | – | 5% | – | 0% | – | > 10 µM | 123% | 10.6 ± 0.4 µM | – | 17% | – | – | – | – | efficacy CB1, cAMP accumulation assay (human CB1 receptor [1]; [13]): (110%)^b; efficacy CB2, cAMP accumulation assay (human CB2 receptor [3]; [13]): (57%)^b |
